Experimental data from patent US11091522B2, “Peptidomimetic macrocycles and uses thereof” (priority 2018, dated 2021).
Read-outs that look alike come from different tables or passages of the source. Values belong to the compound of their own block, whether it stands above or below them. Bridge positions count the residues as written; N and C are the ends. Square brackets hold non-standard residues; d marks the D form. Peptide text beside a SMILES is read from it. R8 = C=CCCCCCC[C@@](C)(N)C(=O)O; S5 = C=CCCC[C@](C)(N)C(=O)O; Nle = CCCC[C@H](N)C(=O)O; Aib = CC(C)(N)C(=O)O

Key:
[1] = Circular dichroism (CD) analysis of alpha-helicity; type: physicochemical; conditions: difference 50% TFE minus benign
Description: Peptide solutions were analyzed by CD spectroscopy using a spectropolarimeter. A temperature controller was used to maintain temperature control of the optical cell. Results are expressed as mean molar ellipticity [θ] (deg cm^2 dmol^−1) as calculated from the equation [θ]=θobs·MRW/10*l*c where θobs is the observed ellipticity in millidegrees, MRW is the mean residue weight of the peptide (peptide molecular weight/number of residues), 1 is the optical path length of the cell in centimeters, and c is the peptide concentration in mg/ml. Peptide concentrations were determined by amino acid analysis. Stock solutions of peptides were prepared in benign CD buffer (20 mM phosphoric acid, pH 2). The stock solutions were used to prepare peptide solutions of 0.05 mg/ml in either benign CD buffer or CD buffer with 50% trifluoroethanol (TFE) for analyses in a 10 mm path length cell. Variable wavelength measurements of peptide solutions were scanned at 4° C. from 195 to 250 nm, in 0.2 nm increments, and a scan rate 50 nm per minute. The average of six scans is reported.

[2] = target: MDM2 (Homo sapiens, UniProt Q00987); test: Competitive fluorescence polarization assay for MDM2; type: binding
Description: 1 mM of FAM-labeled linear peptide (in 100% DMSO) was diluted to 100 μM with DMSO (dilution 1:10). Then, diluted solution was further diluted from 100 μM to 10 μM with water (dilution 1:10), and diluted again with FP buffer from 10 μM to 40 nM (dilution 1:250). […] The diluted FAM-labeled peptides were kept in the dark until use.
Unlabeled peptide dose plates were prepared with FP buffer starting with 1 μM (final) of the peptide. […] 10 mM of the solution (in 100% DMSO) with DMSO to 5 mM (dilution 1:2); dilution from 5 mM to 500 μM with H2O (dilution 1:10); and dilution with FP buffer from 500 μM to 20 μM (dilution 1:25). […] 10 μl of 10 nM (4×) of FAM-labeled peptide was added into each well, and the wells were incubated for 3 h before being read.

[3] = target: T1, MDMX (Homo sapiens, UniProt O15151); test: Competitive fluorescence polarization assay for MDMX; type: binding
T1 sequence (O15151 1-125): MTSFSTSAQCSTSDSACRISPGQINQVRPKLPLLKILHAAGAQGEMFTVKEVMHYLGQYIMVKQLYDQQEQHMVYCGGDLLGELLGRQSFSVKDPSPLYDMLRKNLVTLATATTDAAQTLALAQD
Description: MDMX (40 kD) was diluted into FP buffer (high-salt buffer 200 mM NaCl, 5 mM CHAPS, pH 7.5) to make a 300 nM (2×) working stock solution. 20 μl of the 300 nM (2×) of protein stock solution was added into each well of 96-well black microplate. 1 mM (in 100% DMSO) of a FAM-labeled linear peptide was diluted with DMSO to a concentration of 100 μM (dilution 1:10). The solution was diluted from 100 M to 10 M with water (dilution 1:10), and diluted further with FP buffer from 10 μM to 40 nM (dilution 1:250). […] The diluted FAM-labeled peptide was kept in the dark until use. An unlabeled peptide dose plate was prepared with FP buffer starting with a concentration of 5 μM (final) of a peptide. […] 10 mM (in 100% DMSO) of the solution was diluted with DMSO to prepare a 5 mM (dilution 1:2) solution. The solution was diluted from 5 mM to 500 μM with H2O (dilution 1:10), and diluted further with FP buffer from 500 μM to 20 μM (dilution 1:25). […] 10 μl of the serially diluted unlabeled peptides were added to each well, which was filled with 20 μl of the 300 nM protein solution. 10 μl of the 10 nM (4×) FAM-labeled peptide solution was added into each well, and the wells were incubated for 3 h before reading.

[4] = competitive fluorescence polarization, MDM2, read-out: Ki (MDM2)
[5] = competitive fluorescence polarization, MDMX, read-out: Ki (MDMX)

Chain of MDM2 (Q00987 1-125): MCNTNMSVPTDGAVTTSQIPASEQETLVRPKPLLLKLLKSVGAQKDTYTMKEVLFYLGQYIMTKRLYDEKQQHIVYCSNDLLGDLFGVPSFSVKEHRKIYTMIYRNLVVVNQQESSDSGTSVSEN

SMILES: CC(=O)N[C@@H](CC(C)C)C(=O)N[C@H](C(=O)N[C@@H](Cc1ccccc1)C(=O)N[C@]1(C)CCCCCCC=CCCC[C@@](C)(C(=O)N[C@@H](Cc2c[nH]cn2)C(=O)N[C@@H](Cc2c[nH]cn2)C(=O)N[C@@H](CC(C)C)C(=O)N[C@H](C)C(N)=O)NC(=O)[C@H](CC(C)C)NC(=O)[C@H](CCC(N)=O)NC(=O)[C@H](C)NC(=O)[C@H](Cc2c[nH]c3ccccc23)NC(=O)[C@H](Cc2ccc(O)cc2)NC(=O)[C@H](C)NC1=O)[C@@H](C)O [compound 43] (Ac-LTF[R8]AYWAQL[S5]HHL[dA]-NH2; staple 4-11)
Molar Ellipticity TFE-Molar Ellipticity Benign [1]: 2912.9 deg cm^2 dmol^−1

SMILES: CC(=O)N[C@@H](CC(C)C)C(=O)N[C@H](C(=O)N[C@@H](Cc1ccccc1)C(=O)N[C@]1(C)CCCCCCC=CCCC[C@@](C)(C(=O)N[C@@H](CO)C(=O)N[C@@H](C)C(=O)N[C@@H](Cc2ccccc2)C(N)=O)NC(=O)[C@H](CC(C)C)NC(=O)[C@H](CCC(N)=O)NC(=O)[C@H](C)NC(=O)[C@H](Cc2c[nH]c3ccccc23)NC(=O)[C@H](Cc2ccc(O)cc2)NC(=O)[C@H](C)NC1=O)[C@@H](C)O [compound 7] (Ac-LTF[R8]AYWAQL[S5]SAF-NH2; staple 4-11)
Molar Ellipticity TFE-Molar Ellipticity Benign [1]: −20045.4 deg cm^2 dmol^−1

SMILES: CC(C)C[C@H](NC(=O)CN(C)C)C(=O)N[C@H](C(=O)N[C@@H](Cc1ccccc1)C(=O)N[C@]1(C)CCCCCC/C=C/CCC[C@@](C)(C(=O)N[C@@H](C)C(=O)N[C@@H](C)C(=O)N[C@@H](C)C(=O)N[C@@H](C)C(=O)N[C@@H](C)C(=O)N[C@H](C)C(N)=O)NC(=O)[C@H](CC(C)C)NC(=O)[C@H](CCC(N)=O)NC(=O)[C@H](C)NC(=O)[C@H](Cc2c[nH]c3ccccc23)NC(=O)[C@H](Cc2ccc(O)cc2)NC(=O)[C@H](C)NC1=O)[C@@H](C)O [compound 437]
IC50 [2]: 10 to 100 nM
Ki [2]: < 10 nM
IC50 [3]: 10 to 100 nM
Ki [3]: 10 to 100 nM

SMILES: CCCC[C@H](NC(=O)[C@H](CCC(N)=O)NC(=O)[C@H](CCC(N)=O)NC(=O)[C@]1(C)CCCC=CCCCCCC[C@@](C)(NC(=O)[C@H](Cc2ccccc2)NC(C)=O)C(=O)N[C@@H](C)C(=O)N[C@@H](Cc2ccc(O)cc2)C(=O)N[C@@H](Cc2c[nH]c3ccccc23)C(=O)N[C@@H]([C@@H](C)O)C(=O)N[C@@H](C)C(=O)N[C@@H](CC(C)C)C(=O)N1)C(=O)N[C@@H](C(N)=O)C(C)C [compound 41] (Ac-F[R8]AYWTAL[S5]QQ[Nle][dV]-NH2; staple 2-9)
Molar Ellipticity TFE-Molar Ellipticity Benign [1]: 20410.4 deg cm^2 dmol^−1

SMILES: CC(=O)N[C@@H](CC(C)C)C(=O)N[C@H](C(=O)N[C@@H](Cc1ccc(F)c(F)c1)C(=O)N[C@]1(C)CCCCCC/C=C/CCC[C@@](C)(C(=O)N[C@@H](C)C(=O)N[C@@H](C)C(=O)N[C@@H](C)C(=O)N[C@@H](C)C(=O)N[C@@H](C)C(=O)N[C@H](C)C(N)=O)NC(=O)[C@H](CC(C)C)NC(=O)[C@H](CCC(N)=O)NC(=O)[C@H](C)NC(=O)[C@H](Cc2c[nH]c3ccccc23)NC(=O)[C@H](Cc2ccc(O)cc2)NC(=O)[C@H](CCC(=O)O)NC1=O)[C@@H](C)O [compound 558]
Ki [2]: 10 to 100 nM
Ki [3]: 10 to 100 nM

SMILES: CC(=O)N[C@@H](CC(C)C)C(=O)N[C@H](C(=O)N[C@@H](Cc1ccccc1)C(=O)N[C@]1(C)CCCCCCC=CCCC[C@@](C)(C(=O)N[C@@H](CO)C(=O)N[C@@H](C)C(=O)N[C@@H](C)C(N)=O)NC(=O)[C@H](CC(C)C)NC(=O)[C@H](CCC(N)=O)NC(=O)[C@H](C)NC(=O)[C@H](Cc2c[nH]c3ccccc23)NC(=O)[C@H](Cc2ccc(O)cc2)NC(=O)[C@H](C)NC1=O)[C@@H](C)O [compound 11] (Ac-LTF[R8]AYWAQL[S5]SAA-NH2; staple 4-11)
Molar Ellipticity TFE-Molar Ellipticity Benign [1]: 16225.2 deg cm^2 dmol^−1

SMILES: CC(=O)N[C@@H](CC(C)C)C(=O)N[C@H](C(=O)N[C@@H](Cc1ccccc1)C(=O)N[C@]1(C)CCCCCC/C=C/CCC[C@@](C)(C(=O)N[C@@H](C)C(=O)N[C@@H](C)C(=O)N[C@@H](C)C(=O)N[C@@H](C)C(=O)N[C@@H](C)C(=O)N[C@H](C)C(N)=O)NC(=O)[C@H](CC(C)C)NC(=O)[C@H](CCC(N)=O)NC(=O)[C@H](C)NC(=O)[C@H](Cc2c[nH]c3cc(Cl)ccc23)NC(=O)[C@H](Cc2ccc(O)cc2)NC(=O)[C@H](CCC(=O)O)NC1=O)[C@@H](C)O [compound 555]
Ki [2]: < 10 nM
Ki [3]: 10 to 100 nM

SMILES: CCCC[C@H](NC(=O)[C@H](C)NC(=O)[C@H](C)NC(=O)[C@]1(C)CCC/C=C/CCCCCC[C@@](C)(NC(=O)[C@H](Cc2ccccc2)NC(=O)[C@@H](NC(=O)[C@H](CC(C)C)NC(C)=O)[C@@H](C)O)C(=O)N[C@@H](C)C(=O)N[C@@H](Cc2ccc(O)cc2)C(=O)N[C@@H](Cc2c[nH]c3ccccc23)C(=O)N[C@@H](C)C(=O)N[C@@H](CCC(N)=O)C(=O)N[C@@H](CC(C)C)C(=O)N1)C(=O)N[C@@H](C)C(N)=O [compound 69]
Molar Ellipticity TFE-Molar Ellipticity Benign [1]: −21407.1 deg cm^2 dmol^−1

SMILES: CC[C@H](C)[C@H](NC(=O)[C@H](C)NC(=O)[C@H](C)NC(=O)[C@]1(C)CCC/C=C/CCCCCC[C@@](C)(NC(=O)[C@H](Cc2ccccc2)NC(=O)[C@@H](NC(=O)[C@H](CC(C)C)NC(C)=O)[C@@H](C)O)C(=O)N[C@@H](C)C(=O)N[C@@H](Cc2ccc(O)cc2)C(=O)N[C@@H](Cc2c[nH]c3ccccc23)C(=O)N[C@@H](C)C(=O)N[C@@H](CCC(N)=O)C(=O)N[C@@H](CC(C)C)C(=O)N1)C(=O)N[C@H](C)C(N)=O [compound 71]
Molar Ellipticity TFE-Molar Ellipticity Benign [1]: −17835.9 deg cm^2 dmol^−1

Continued, values first:

Ki [2, 4]: < 10 nM
Ki [3, 5]: 10 to 100 nM
SMILES: CC(=O)N[C@@H](CC(C)C)C(=O)N[C@H](C(=O)N[C@@H](Cc1ccccc1)C(=O)N[C@]1(C)CCCCCC/C=C/CCC[C@@](C)(C(=O)N[C@@H](C)C(=O)N[C@@H](C)C(=O)N[C@@H](C)C(=O)N[C@@H](C)C(=O)N[C@@H](C)C(=O)N(C)CC(N)=O)NC(=O)[C@H](CC(C)C)NC(=O)[C@H](CCC(N)=O)NC(=O)[C@H](C)NC(=O)[C@H](Cc2c[nH]c3ccccc23)NC(=O)[C@H](Cc2ccc(O)cc2)NC(=O)[C@H](CCC(=O)O)NC1=O)[C@@H](C)O [compound 578]

Ki [2, 4]: < 10 nM
Ki [3, 5]: 10 to 100 nM
SMILES: CC(=O)N[C@@H](CC(C)C)C(=O)N[C@H](C(=O)N[C@@H](Cc1ccccc1)C(=O)N[C@]1(C)CCCCCC/C=C/CCC[C@@](C)(C(=O)N[C@@H](C)C(=O)N[C@@H](C)C(=O)N[C@@H](C)C(=O)NC(C)(C)C(=O)N[C@@H](C)C(=O)N[C@H](C)C(N)=O)NC(=O)[C@H](CC(C)C)NC(=O)[C@H](CCC(N)=O)NC(=O)[C@H](C)NC(=O)[C@H](Cc2c[nH]c3ccccc23)NC(=O)[C@H](Cc2ccc(O)cc2)NC(=O)[C@H](CCC(=O)O)NC1=O)[C@@H](C)O [compound 564] (Ac-LTF[R8]EYWAQL[S5]AAA[Aib]A[dA]-NH2; staple (E) 4-11)

Molar Ellipticity TFE-Molar Ellipticity Benign [1]: −18554.7 deg cm^2 dmol^−1
SMILES: CC(=O)N[C@@H](CC(C)C)C(=O)N[C@H](C(=O)N[C@@H](Cc1ccccc1)C(=O)N[C@]1(C)CCCCCCC=CCCC[C@@](C)(C(=O)N[C@@H](C)C(=O)N[C@@H](C)C(=O)N[C@@H](C)C(=O)N[C@@H](C)C(=O)N[C@H](C)C(N)=O)NC(=O)[C@H](CC(C)C)NC(=O)[C@H](CCC(N)=O)NC(=O)[C@H](C)NC(=O)[C@H](Cc2c[nH]c3ccccc23)NC(=O)[C@H](Cc2ccc(O)cc2)NC(=O)[C@H](C)NC1=O)[C@@H](C)O [compound 233]

Molar Ellipticity TFE-Molar Ellipticity Benign [1]: −17760.8 deg cm^2 dmol^−1
SMILES: CC(=O)N[C@@H](CC(C)C)C(=O)N[C@H](C(=O)N[C@@H](Cc1ccccc1)C(=O)N[C@]1(C)CCCCCCC=CCCC[C@@](C)(C(=O)N[C@@H](C)C(=O)N[C@@H](C)C(=O)N[C@@H](C)C(=O)N[C@H](C)C(N)=O)NC(=O)[C@H](CC(C)C)NC(=O)[C@H](CCC(N)=O)NC(=O)[C@H](C)NC(=O)[C@H](Cc2c[nH]c3ccccc23)NC(=O)[C@H](Cc2ccc(O)cc2)NC(=O)[C@H](C)NC1=O)[C@@H](C)O (single isomer, unassigned) [compound 230]

Ki [2, 4]: < 10 nM
Ki [3, 5]: 10 to 100 nM
SMILES: CC(=O)N[C@@H](CC(C)C)C(=O)N[C@H](C(=O)N[C@@H](Cc1ccccc1)C(=O)N[C@]1(C)CCCCCC/C=C/CCC[C@@](C)(C(=O)N[C@@H](C)C(=O)N[C@@H](C)C(=O)N[C@@H](C)C(=O)N[C@@H](C)C(=O)N[C@@H](C)C(=O)NC(C)(C)C(N)=O)NC(=O)[C@H](CC(C)C)NC(=O)[C@H](CCC(N)=O)NC(=O)[C@H](C)NC(=O)[C@H](Cc2c[nH]c3ccccc23)NC(=O)[C@H](Cc2ccc(O)cc2)NC(=O)[C@H](CCC(=O)O)NC1=O)[C@@H](C)O [compound 567]
